For assay [1], the system named is Staphylococcus hominis DSM 20328. The assay is described as follows: Determination of the Minimum Inhibitory Concentration (MIC value) in microtitre plates, Staphylococcus hominis. Particulars: Staphylococcus hominis DSM 20328, CASO broth, 48 hours at 37° C., MIC = ≦20% growth (optical density at 620 nm); for MIC: Staphylococcus hominis, DSM20328, 48 h, read-out: MIC [μg/ml] SH. In kind it is cell-based. The procedure: (§1) Determination of the Minimum Inhibitory Concentration (MIC Value) in Microtitre Plates
Casein-soybean flour-peptone broth for preparation of pre-cultures of test bacteria and yeast.
Staphylococcus hominis DSM 20328 […]
(§2) The test substances are pre-dissolved in dimethyl sulfoxide (DMSO) and tested in a dilution series of 1:2.
(§3) The bacteria are cultured overnight in CASO broth and washed off using 10 ml of 0.85% sodium chloride solution (+0.1% Triton X-100).
(§4) All the test organisms are adjusted to an organism count of 1-5×10^6 CFU/ml using 0.85% sodium chloride solution.
(§5) The test substances are pre-pipetted into microtitre plates in amounts of 8 μl per well.
(§6) Pre-diluted test organism suspensions are diluted 1:100 in CASO broth.
(§7) The test batches are incubated for 48 hours at 37° C.
(§8) After incubation, the growth is determined on the basis of the turbidity of the test batches (optical density) at 620 nm in a microplate reader.
(§9) The minimum inhibitory concentration (MIC value) is the concentration of substance at which there is found (compared to the growth of the control) an appreciable inhibition of growth (≦20% growth) of the test organisms.
(§10) One microtitre plate is used for each test organism and substance concentration.
(§11) All the substances are tested in duplicate.

Assay [2] deals with Escherichia coli NCTC 8196. Kind of assay: Determination of the Minimum Inhibitory Concentration (MIC value) in microtitre plates, Escherichia coli. Particulars: Escherichia coli NCTC 8196, CASO broth, 48 hours at 37° C., MIC = ≦20% growth (optical density at 620 nm); for MIC: Escherichia coli, NCTC8196, 48 h, read-out: MIC [μg/ml] EC. The class given is cell-based. The procedure: as §1
Casein-soybean flour-peptone broth for preparation of pre-cultures of test bacteria and yeast. […]
Escherichia coli NCTC 8196
as §2, §3, §4, §5, §6, §7, §8, §9, §10, §11

A value given as a limit tells only on which side of the number the result lay.

Data on 30 compounds can be found in patent US20040006061A1, “Alkoxybenzylamine” (priority 2001, published 2004).

For the compound `CCCCCCCCCCCCOc1ccc(CN(C)CCCC)cc1` [Compound of formula (73)], the figures for the MIC in assay [1] and in assay [2] were 120 µg/mL and greater than 120 µg/mL, respectively.

As to `CCCCCCCCCCCCOc1ccc(CN2CCCCCC2)cc1` [Compound of formula (74)], the MIC is 3.75 µg/mL in assay [1] and greater than 120 µg/mL in assay [2].

For `CCCCCCCCCCCCOc1ccc(CN(C(C)C)C(C)C)cc1` [Compound of formula (75)], the MIC in assay [1] and in assay [2] was greater than 120 µg/mL in each case.

Take `CCCCCCCCCCCCOc1ccc(CN2CCN(C)CC2)cc1` [Compound of formula (76)]: the MIC in assay [1] is 7.5 µg/mL; in assay [2] it was greater than 120 µg/mL.

Take `CCCCCCCCCCCCOc1ccc(CN(C)CC)cc1` [Compound of formula (77)]: the MIC in assay [1] is 15 µg/mL; in assay [2], greater than 120 µg/mL.

In the case of `CCCCCCCCCCCCOc1ccc(CN2CCN(C(C)=O)CC2)cc1` [Compound of formula (78)], the MIC in assay [1] and in assay [2] was greater than 120 µg/mL each time.

With `CCCCCCCCCCCCOc1ccc(CN(C)Cc2ccccc2)cc1` [Compound of formula (79)], the MIC in assay [1] is 60 µg/mL; in assay [2], greater than 120 µg/mL.

As for `CCCCCCCCCCCCOc1ccc(CN(C)CCCCCC)cc1` [Compound of formula (80)], the MIC is 60 µg/mL in assay [1] and greater than 120 µg/mL in assay [2].

As for `CCCCCCCCCCCCOc1ccc(CN2CCN(CC)CC2)cc1` [Compound of formula (81)], the MIC was 15 µg/mL in assay [1] and greater than 120 µg/mL in assay [2].

With `CCCCCCCCCCCCOc1ccc(CN2CCCC2)cc1` [Compound of formula (82)], the “MIC [μg/ml] SH” value in assay [1] (listed as (82)) is 7.5 µg/mL. Also, the MIC in assay [2] stood at 60 µg/mL.

For the compound `CCCCCCCCCCCCOc1ccc(CN2CCCC2)cc1` [Compound of formula (83)], the “MIC [μg/ml] SH” value in assay [1] (listed as (83)) is greater than 120 µg/mL. In assay [2], the “MIC [μg/ml] EC” value is greater than 120 µg/mL.

`CCCCCCCCCCCCOc1ccc(CN(C)C)cc1` [Compound of formula (84)]: the MIC turned out to be 7.5 µg/mL in assay [1] and 60 µg/mL in assay [2].

As to `CCCCCCCCCCCCOc1ccc(CN2CCNCC2)cc1` [Compound of formula (85)], the MIC in assay [1] and in assay [2] was greater than 120 µg/mL throughout.

Take `CCCCCCCCCCCCOc1ccc(CN2CCCCC2)cc1` [Compound of formula (86)]: the MIC is 7.5 µg/mL in assay [1] and greater than 120 µg/mL in assay [2].

Consider `CCCCCCOc1ccc(CN(C)CCc2ccccn2)cc1OCCCCCC` [Compound of formula (87)], for which the values for the MIC in assay [1] and in assay [2] were 30 µg/mL and greater than 120 µg/mL, respectively.

For `CCCCCCOc1ccc(CN2CCOCC2)cc1OCCCCCC` [Compound of formula (88)], the MIC in assay [1] and in assay [2] was greater than 120 µg/mL throughout.

As for `CCCCCCOc1ccc(CN(C)CCCC)cc1OCCCCCC` [Compound of formula (89)], the MIC in assay [1] is 60 µg/mL; in assay [2], greater than 120 µg/mL.

Turning to `CCCCCCOc1ccc(CN2CCCCCC2)cc1OCCCCCC` [Compound of formula (90)], the MIC in assay [1] was 7.5 µg/mL; in assay [2], greater than 120 µg/mL.

Regarding `CCCCCCOc1ccc(CN(C(C)C)C(C)C)cc1OCCCCCC` [Compound of formula (91)], the MIC in assay [1] and in assay [2] was greater than 120 µg/mL in each case.

As for `CCCCCCOc1ccc(CN2CCN(C)CC2)cc1OCCCCCC` [Compound of formula (92)], the MIC in assay [1] came out at 15 µg/mL; in assay [2], 60 µg/mL.

For `CCCCCCOc1ccc(CN(CC)CC)cc1OCCCCCC` [Compound of formula (93)], the MIC is 7.5 µg/mL in assay [1] and 120 µg/mL in assay [2].

In the case of `CCCCCCOc1ccc(CN2CCN(C(C)=O)CC2)cc1OCCCCCC` [Compound of formula (94)], the MIC in assay [1] and in assay [2] was greater than 120 µg/mL in each case.

For the compound `CCCCCCOc1ccc(CN(C)Cc2ccccc2)cc1OCCCCCC` [Compound of formula (95)], the MIC in assay [1] and in assay [2] was greater than 120 µg/mL in each case.

Take `CCCCCCOc1ccc(CN(C)CCCCCC)cc1OCCCCCC` [Compound of formula (96)]: the MIC is 120 µg/mL in assay [1] and greater than 120 µg/mL in assay [2].

Consider `CCCCCCOc1ccc(CN2CCN(CC)CC2)cc1OCCCCCC` [Compound of formula (97)], for which the MIC in assay [1] stood at 30 µg/mL; in assay [2], 120 µg/mL.

For the compound `CCCCCCOc1ccc(CN2CCCC2)cc1OCCCCCC` [Compound of formula (98)], the MIC in assay [1] is 3.75 µg/mL; in assay [2], 7.5 µg/mL.

`CCCCCCCCCCCCN(C)Cc1ccc(OCCCCCC)c(OCCCCCC)c1` [Compound of formula (99)]: the MIC in assay [1] and in assay [2] was greater than 120 µg/mL in each case.

Turning to `CCCCCCOc1ccc(CN(C)C)cc1OCCCCCC` [Compound of formula (100)], the MIC in assay [1] and in assay [2] was 7.5 µg/mL in each case.

Turning to `CCCCCCOc1ccc(CN2CCNCC2)cc1OCCCCCC` [Compound of formula (101)], the MIC in assay [1] and in assay [2] was greater than 120 µg/mL each time.

Take `CCCCCCOc1ccc(CN2CCCCC2)cc1OCCCCCC` [Compound of formula (102)]: the MIC in assay [1] is 7.5 µg/mL; in assay [2] it was greater than 120 µg/mL.
